The source of these data is patent publication US4792554A, “Pyridine compounds, pharaceutical compositions, their use in allergy therapy” (priority 1985, dated 1988).

The subject of data set [1] is mast cells. To be noted: British Pat. No. 1,144,905; cited from earlier work.
The nature of data set [2]: Normal weight gain of rats in a subchronic 14-day experiment. In kind it is in vivo, rat. The following applies: high oral doses. An excerpt: Finally, the compound of Example 3 had no effect, even at high oral doses, on the normal weight gain of rats in a subchronic 14-day experiment. It is evident from this that the compounds of the formula I have no appetite-stimulating action in contrast to many other antihistamines.

Data set [3] concerns rat peritoneal mast cells. Kind of data set: Histamine release from isolated rat mast cells induced by calcium ionophore A 23 187. In kind it is cell-based. The following applies: Mast cell, 0.25 h, 15 min incubation, A 23 187 10^-6 g/ml, read-out: Inhibitory action in the Ca ionophore test IC50. As to the method:
(b) Histamine release from isolated rat mast celss induced by calcium ionophore A 23 187 […] […] For this purpose, 10^4 cells were suspended in Clicks/RPMI (50:50, vol.; supplied by Serva, Heidelberg) tissue culture medium, incubated with the test substance for 15 minutes, and then treated with calcium ionophore A 23 187 at a concentration of 10^-6 g/ml. The released histamine was determined by high-pressure liquid chromatography (HPLC). The measure used for the inhibitory action was the IC50 which represents the molar concentration (mol/l) at which the induced histamine release was decreased to one half that of cells which had not been pretreated with a product. In this context, IC50 values above 10^-5 mol/l are regarded as therapeutically irrelevant.

The subject of data set [4] is bradykinin. Kind of data set: Antagonistic action towards bradykinin: inhibition of bradykinin-induced bronchospasm in anesthetized guinea pigs (Konzett-Rössler). The data set is classed as in vivo, guinea pig. To be noted: Cavia porcellus, iv, anesthetized guinea pigs, dose reducing induced spasm to one half; read-out: Inhibitory action towards bradykinin (ED50). As to the method: (§1) 1. Antagonistic action towards the allergy mediators (on anesthetized guinea pigs)
(§2) The test substances were administered intravenously in aqueous solution injected in a volume of 1 ml/kg.

The subject of data set [5] is asthma induced by histamine. Kind of data set: Inhibition by inhalation of allergic asthma induced by histamine in conscious guinea pigs. In kind it is in vivo, guinea pig. The following applies: 0.3% strength aerosol.
For data set [6], the system named is platelet activating factor (PAF). Put plainly: Antagonism of PAF-induced bronchospasm in anesthetized rats. In kind it is in vivo, rat. The following applies: for action on PAF / PAF-induced bronchospasm (in words): PAF test. The protocol: (§3) The compounds of the formula I and their salts additionally show a pronounced inhibitory action on platelet activating factor (PAF) and the leukotrienes, which are likewise released as spasmogenic mediators from the mast cells during the course of the immediate anaphylactic reaction. It was possible to antagonize the bronchospasm induced in anesthetized rats by administration of PAF by, for example, intravenous administration of the compound of Example 3 with a ED50 of 1-3 mg/kg. The said products of the state of the art, such as oxatomide, ketotiphen and terfenadine, have no action in this test. The contractions induced by calcium ionophore A 23 187 in isolated strips of lung and the isolated trachea of guinea pigs were inhibited by, for example, the compound of Example 3 with an IC50 of 0.1-0.3 μg/ml. Since calcium ionophore A 23 187 stimulates 5-lipoxygenase and thus promotes the formation of spasmogenic leukotrienes, a possible interpretation of the result of this experiment is that the compounds according to the invention are potent leukotriene inhibitors.

The test system of data set [7] is histamine. Put plainly: Antagonistic action towards histamine: inhibition of histamine-induced bronchospasm in anesthetized guinea pigs (Konzett-Rössler). To be noted: Cavia porcellus, iv, anesthetized guinea pigs, dose reducing induced spasm to one half; read-out: Inhibitory action towards histamine (ED50). In kind it is in vivo, guinea pig. As to the method: as §1, §2

Data set [8] has as its system isolated strips of lung and the isolated trachea of guinea pigs. Put plainly: Inhibition of contractions induced by calcium ionophore A 23 187 in isolated strips of lung and isolated trachea of guinea pigs. The following applies: guinea pig. As to the method: as §3
Data set [9] has as its system leukotriene D4. Put plainly: Inhibition of leukotriene D4-induced spasm in isolated guinea pig trachea. The following applies: leukotriene D4 10 pg/ml.
Data set [10] deals with airway obstruction induced by histamine aerosol. Kind of data set: Plethysmographic investigation on conscious guinea pigs with airway obstruction induced by inhalation of histamine aerosol. The data set is classed as in vivo, guinea pig. The following applies: oral, 0.3% strength histamine aerosol; for ED50: Cavia porcellus.
Data set [11] concerns mast cells. Kind of data set: Passive cutaneous anaphylaxis (PCA) in the rat, inhibition of mediator release (protective effect on mast cells). In kind it is in vivo. The following applies: Mast cell. The text has this: (a) Passive cutaneous anaphylaxis (PCA) in the rat (PCA test) Passive cutaneous anaphylaxis is an IgE-mediated allergy of the immediate type (type I). In this model, antibodies bound to mast cells and basophilic granulocytes react with an intravenously administered antigen with release of excessive amount of the allergy mediators. The histamine which is released during this can be visualized by simultaneous application of Evans blue to the shaven flanks of the rats. Photometric evaluation of the color intensity was used to determine, by means of the percentage inhibition of mediator release compared with untreated control animals, the protective effect on mast cells of the compound according to the invention after oral administration.

The nature of data set [12]: Acute toxicity, mortality within 7 days after single i.p. administration to NMRI mice. The following applies: in vivo, ip, mouse i.p. As to the method: The LD50 values were determined by the standard method of the mortality occurring within 7 days after a single intraperitoneal (i.p.) administration to NMRI mice (NMRI=Naval Medical Research Institute).
Data set [13] has as its system histamine and leukotrienes. The following applies: state of the art; cited from earlier work.
The conditions of data set [14]: side effect, state of the art; cited from earlier work.
Data set [15] has as its system spontaneous motility of the mouse. Kind of data set: Spontaneous motility of the mouse (central sedation). The following applies: oral, 1 mg/kg. The data set is classed as in vivo.
The conditions of data set [16]: state of the art; cited from earlier work.

As for `O=C(O)c1cc(=O)c2c(OCC(O)COc3cccc4oc(C(=O)O)cc(=O)c34)cccc2o1` [CHROMOGLICIC ACID], in [1], the stabilizing mast cells entry was “stabilizing mast cells”.

As to `Cc1cc(NCCN2CCN(C(c3ccccc3)c3ccccc3)CC2)c([N+](=O)[O-])c(C)n1.Cl.Cl.Cl` [Example 3, 2,6-dimethyl-3-nitro-4-[(2-{4-diphenylmethyl-1-piperazinyl}ethyl)amino]pyridine trihydrochloride], the “effect on normal weight gain” value in [2] was “no effect”. In addition, the IC50 in [3] worked out at 10 nM. Besides, the ED50 in data set [4] is 0.15 mg/kg; in [6] (Rattus norvegicus, Platelet, intravenous, anesthetized rats), 1 to 3 mg/kg; in data set [7], 0.3 mg/kg; in [10], 3.15 mg/kg. Besides, in [5], the “suppression of experimentally induced asthma attacks” value is given as “substantial suppression”. Moreover, the “IC50, contractions induced by calcium ionophore A 23 187” value in [8] is 0.1 to 0.3 µg/mL. Also, the “concentration inhibiting leukotriene D4-induced spasm by 50%” value in [9] is 3 to 6 µg/mL. The “time after administration to maximum effect” value in [10] amounted to 30 min. This compound came in with an inhibition in vivo at 12.5 mg/kg in data set [11] (oral dose 12.5 mg/kg) of 26%. This compound showed an inhibition in vivo at 25 mg/kg in data set [11] (oral dose 25 mg/kg) of 61%. For the same compound, in data set [11] (oral dose 50 mg/kg), the inhibition in vivo at 50 mg/kg is 85%. The compound also gave an LD50 at 168 h in [12] of 300 to 600 mg/kg.

For `CN1CCC(=C2c3ccccc3CC(=O)c3sccc32)CC1` [ketotifen], in data set [13], the “antagonistic properties for histamine and leukotrienes” value was “antagonistic properties for histamine and leukotrienes”. Besides, the “action on PAF / PAF-induced bronchospasm (in words)” value in [6] is reported as “no action”. Further, in [14], the sedation result is recorded as “pronounced sedation”. For the same compound, the “reduction in the spontaneous motility” value in [15] is given as “significant”.

As for `O=c1[nH]c2ccccc2n1CCCN1CCN(C(c2ccccc2)c2ccccc2)CC1` [oxatomide], the “antagonistic properties for histamine and leukotrienes” value in data set [13] was “antagonistic properties for histamine and leukotrienes”. In addition, the “action on PAF / PAF-induced bronchospasm (in words)” value in data set [6] was “no action”. For the same compound, in [14], the sedation result was “pronounced sedation”. Besides, in data set [10], the 50% effect level (ED50) was put at a dose of 25 mg/kg and the “time after administration to maximum effect” value worked out at 90 min. Moreover, in data set [16], the onset of action result is “does not exert its action until several days have passed”.

As usually defined, the IC50 is the concentration at which inhibition is half-maximal. For orientation: ED50 means the dose that gives a 50% effect, or the effect in half of the subjects. The inhibition in vivo is the relative decrease from the control value, in per cent. A higher inhibition in vivo goes with a response far below the control. As usually defined, the LD50 is the dose expected to kill half of the subjects tested. A lower LD50 goes with a more toxic substance.
